Measured values published in patent US10050214B2, “Near-ultraviolet stimulated light-emitting compound and production method for same” (NANO CMS CO., LTD., priority 2014, dated 2018).

Experiments:
Type in all cases: physicochemical
[1] = Residual fluorescent intensity after artificial light exposure (ASTM G 154-06 Cycle 1)
Procedure: The obtained quinazolinone compound was irradiated with near-UV light in the wavelength of 365 nm, and the intensity of discharged fluorescence was measured. The fluorescent intensity was measured using a fluorescence spectrometer (DARSA-5000, PSI Co., Ltd.), under the condition of 365 nm stimulation wavelength, cumulative average of five-time measurements, and 1024×128 CCD sensor shape. In addition, measurement of residual fluorescent intensity after artificial light exposure was repeated identically according to ASTM G 154-06 Cycle 1 standard.

[2] = Thermal stability (melting point measuring instrument); conditions: summary of TABLE 3
Procedure: (§1) Further, the melting point was measured using the melting point measuring instrument (M5000, KRÜSS GmbH), by assuming that the phase change is at the point where the change in transmissivity reaches 20%. Solubility in organic solvents was measured with respect to eight product items.

[3] = Chemical resistance and solvent resistance tests on printed material; conditions: summary of TABLE 4; printed material with 10% compound
Procedure: (§2) In addition, compositions respectively containing 10% compounds of embodiments 6 and 11 were sealed on a non-florescent paper, using a grinder and an offset plate printing press (HFT-225, HONGFAT machinery manufacturing Co., Ltd.). Chemical resistance tests and solvent resistance tests were performed on the printed material for 30 minutes at 23° C. with respect to each of nine product items. Furthermore, grades with reference to the standard and remaining fluorescence intensities were measured by irradiating the near-ultraviolet light of 365 nm wavelength, using a weatherability tester (QUV, Q-LAB Corporation), according to ASTM G154-06 Cycle No. 1 standard (except for the condensation conditions).

[4] = Weatherability test (QUV tester, ASTM G154-06 Cycle No. 1); conditions: in words
Procedure: as §2

[5] = Solubility in organic solvents (eight product items); conditions: for Solubility, 2% Sodium Hydroxide (Caustic Soda) Solution: 2% Sodium Hydroxide solution; for solubility in organic solvents (in words): summary of TABLE 3
Procedure: as §1

| SMILES | The remaining fluorescence intensity (after artificial light exposure) Coating (10%) [1] | other results |
| --- | --- | --- |
| O=c1[nH]c(-c2cc(Cl)ccc2O)nc2ccccc12 [Embodiment 4, 2-(5-chloro-2-hydroxyphenyl)quinazoline-4(3H)-on] | 65% | – |
| O=c1[nH]c(-c2cc(Cl)ccc2O)nc2ccc(Cl)cc12 [Embodiment 5, 6-choloro-2-(5-chloro-2-hydroxyphenyl)quinazoline-4(3H)-on] | 80% | – |
| O=c1[nH]c(-c2cc(Cl)ccc2O)nc2cc(Cl)ccc12 [Embodiment 6, 7-chloro-2-(5-chloro-2-hydroxyphenyl)quinazoline-4(3H)-on] | 70% | thermal stability (in words) [2]: high; solvent resistance (in words) [3]: high solvent resistance; light fastness grade and remaining fluorescence intensity compared with conventional commercial products [4]: higher light fastness grade and remaining fluorescence intensity than those of conventional commercial products; Solubility, 2% Sodium Hydroxide (Caustic Soda) Solution [5]: Resolved; solubility in organic solvents (in words) [5]: low |
| COc1ccc(-c2nc3ccccc3c(=O)[nH]2)c(O)c1 [Embodiment 7, 2-(2-hydroxy-4-methoxyphenyl)quinazoline-4-(3H)-on] | 40% | – |
| COc1ccc(-c2nc3ccc(Cl)cc3c(=O)[nH]2)c(O)c1 [Embodiment 8, 6-chloro-2-(2-hydroxy-4-methoxyphenyl)quinazoline-4(3H)-on] | 45% | – |
| O=c1[nH]c(-c2ccc(Cl)cc2O)nc2ccccc12 [Embodiment 10, 2-(4-chloro-2-hydroxyphenyl)quinazoline-4(3H)-on] | 60% | – |

Now from value to molecule, other results behind:

| The remaining fluorescence intensity (after artificial light exposure) Coating (10%) [1] | SMILES | other results |
| --- | --- | --- |
| 70% | O=c1[nH]c(-c2ccc(Cl)cc2O)nc2ccc(Cl)cc12 [Embodiment 11, 6-chloro-2-(4-chloro-2-hydroxyphenyl)quinazoline-4(3H)-on] | thermal stability (in words) [2]: high; solvent resistance (in words) [3]: high solvent resistance; light fastness grade and remaining fluorescence intensity compared with conventional commercial products [4]: higher light fastness grade and remaining fluorescence intensity than those of conventional commercial products; Solubility, 2% Sodium Hydroxide (Caustic Soda) Solution [5]: Resolved; solubility in organic solvents (in words) [5]: low |
| 40% | O=c1[nH]c(-c2ccc(Cl)cc2O)nc2cc(Cl)ccc12 [Embodiment 12, 7-chloro-2-(4-chloro-2-hydroxyphenyl)quinazoline-4(3H)-on] | – |
| 65% | O=c1[nH]c(-c2cc(F)ccc2O)nc2ccccc12 [Embodiment 13, 2-(5-fluoro-2-hyroxyphenyl)quinazoline-4(3H)-on] | – |
| 60% | O=c1[nH]c(-c2c(O)cccc2Cl)nc2ccccc12 [Embodiment 16, 2-(2-chloro-6-hyrdoxyphenyl)quinazoline-4(3H)-on] | – |
| 60% | O=c1[nH]c(-c2cccc(Cl)c2O)nc2ccccc12 [Embodiment 17, 2-(3-choloro-2-hydroxyphenyl)quinazoline-4(3H)-on] | – |
